From US8211903B2, “Substituted pyrimido isoquinoline derivatives” (Mitsubishi Tanabe Pharma Corporation, priority 2008, dated 2012) come the findings set out here.

pIC50: −log10 of the molar value. Counter-ions that a name gives are not always drawn.

Test system in one series: not given
Assay: not given
Details: not given
`O=c1cc(-c2ccncc2)nc2c3cccc([N+](=O)[O-])c3ccn12` (as salt: hydrochloride) [compound 4, 8-Nitro-2-pyridin-4-yl-pyrimido[2,1-a]isoquinolin-4-one] returned a melting point of 270 to 272 °C.

As to `O=c1cc(-c2ccncc2)nc2c3cc(O)ccc3ccn12` (as salt: oxalate) [compound 6, 10-Hydroxy-2-pyridin-4-yl-pyrimido[2,1-a]isoquinolin-4-one], the melting point fell in the range of 368 to 370 °C.

`Nc1cccc2c1ccn1c(=O)cc(-c3ccncc3)nc21` [compound 5, 8-Amino-2-pyridin-4-yl-pyrimido[2,1-a]isoquinolin-4-one] registered a melting point of 329 to 331 °C.

`COc1ccc2ccn3c(=O)cc(-c4ccncn4)nc3c2c1` [compound 7, 10-Methoxy-2-pyrimidin-4-yl-pyrimido[2,1-a]isoquinolin-4-one]: the melting point lay within 302 to 304 °C.

`COc1cc2c(cc1OC)-c1nc(-c3ccncc3)cc(=O)n1CC2` [compound 9, 9,10-Dimethoxy-2-pyridin-4-yl-6,7-dihydro-pyrimido[2,1-a]isoquinolin-4-one] came in with a melting point of 271 to 273 °C.

In another series the target is GSK3β (Homo sapiens, UniProt P49841). The series is described as follows: Inhibitory activity against GSK3β (33P-ATP phosphorylation of prephosphorylated GS1 peptide). Type of series: biochemical. To be noted: protocol 3: 7.5 μM GS1 peptide, 10 μM ATP, 50 mM Hepes pH 7.2, one hour at room temperature. As for the experimental part: Four different protocols can be used.
GSK3β, sequence (P49841 whole entry): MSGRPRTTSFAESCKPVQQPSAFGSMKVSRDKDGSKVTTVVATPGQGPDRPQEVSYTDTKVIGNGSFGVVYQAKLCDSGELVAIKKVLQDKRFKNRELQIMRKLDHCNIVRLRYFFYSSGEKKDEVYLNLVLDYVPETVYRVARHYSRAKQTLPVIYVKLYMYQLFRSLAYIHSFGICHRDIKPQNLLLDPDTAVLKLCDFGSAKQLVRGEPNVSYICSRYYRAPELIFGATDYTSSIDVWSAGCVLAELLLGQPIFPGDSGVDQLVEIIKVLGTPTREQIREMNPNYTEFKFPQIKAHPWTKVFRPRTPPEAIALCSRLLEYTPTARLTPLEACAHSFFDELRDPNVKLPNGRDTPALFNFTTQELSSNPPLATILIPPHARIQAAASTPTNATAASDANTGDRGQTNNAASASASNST
In a first protocol: 7.5 μM of prephosphorylated GS1 peptide and 10 μM ATP (containing 300,000 cpm of ^33P-ATP) were incubated in 25 mM Tris-HCl, pH 7.5, 0.6 mM DTT, 6 mM MgCl2, 0.6 mM EGTA, 0.05 mg/ml BSA buffer for 1 hour at room temperature in the presence of GSK3beta (total reaction volume: 100 microliters).
In a second protocol: 4.1 μM of prephosphorylated GS1 peptide and 42 μM ATP (containing 260,000 cpm ^33P-ATP) were incubated in 80 mM Mes-NaOH, pH 6.5, 1 mM Mg acetate, 0.5 mM EGTA, 5 mM 2-mercaptoethanol, 0.02% Tween 20, 10% glycerol buffer for 2 hours at room temperature in the presence of GSK3beta.
In a third protocol: 7.5 μM of prephosphorylated GS1 peptide and 10 μM ATP (containing 300,000 cpm of ^33P-ATP) were incubated in 50 mM Hepes, pH 7.2, 1 mM DTT, 1 mM MgCl2, 1 mM EGTA, 0.01% Tween 20 buffer for one hour at room temperature in the presence of GSK3beta (total reaction volume: 100 microliters). […]
The reaction was stopped with 100 microliters of a solution made of 25 g polyphosphoric acid (85% P2O5), 126 ml 85% H3PO4, H2O to 500 ml and then diluted to 1:100 before use. […] Incorporated ^33P radioactivity was determined by liquid scintillation spectrometry. […]
With `O=c1cc(-c2ccncc2)nc2c3ccccc3ccn12` [compound 1, 2-Pyridin-4-yl-pyrimido[2,1-a]isoquinolin-4-one], the pIC50 is 6.48.

With `Nc1cccc2c1ccn1c(=O)cc(-c3ccncc3)nc21` [compound 5, 8-Amino-2-pyridin-4-yl-pyrimido[2,1-a]isoquinolin-4-one], the pIC50 is 6.77.
